This note sets out measurements from patent US9926377B2, “Anti-GPC3 antibodies and immunoconjugates” (GENENTECH, INC., priority 2014, dated 2018).

A word on the EC50: it is the midpoint of the concentration-response curve.

One experiment concerns 293S. As to the kind of experiment: Cell line sensitivity (proliferation, CellTiter-GloII), 293S. The following applies: 120 h. The class given is cell-based. The method, then: (§1) Various GPC3-expressing cell lines were tested for sensitivity to free nemorubicin derivative, PNU-159682, which has the structure:
(§2) [drawing 32] as follows. Proliferation in the presence of PNU-159682 or SG-2057 were assessed using cells plated at 1000 cells per well in 50 μl of normal growth medium in 96-well clear-bottom plates (PerkinElmer Life Sciences). Twenty-four hours later, an additional 50 μl of culture medium with serial dilutions of the drug was added to triplicate wells. Three or 5 days later, cell numbers were determined using CellTiter-GloII (Promega Corp.) and with an EnVision 2101 multilabel reader (PerkinElmer).

In a further experiment the test system is 293_GPC3. As to the kind of experiment: Cell line sensitivity (proliferation, CellTiter-GloII), 293_GPC3. The class given is cell-based. As to conditions: 120 h. The protocol: as §1, §2
For orientation: ATP-based viability assays read luminescence as a measure of living cells.

The subject of another experiment is PC3. The experiment in a line: Cell line sensitivity (proliferation, CellTiter-GloII), PC3. As to conditions: Homo sapiens, PC-3, 120 h. The class given is cell-based. The protocol: as §1, §2
The subject of another experiment is Hep3B.2.1-7. As to the kind of experiment: Cell line sensitivity (proliferation, CellTiter-GloII), Hep3B.2.1-7. The class given is cell-based. The following applies: 120 h. The method, then: as §1, §2
A further experiment has as its system Huh7. The experiment in a line: Cell line sensitivity (proliferation, CellTiter-GloII), Huh7. As to conditions: Homo sapiens, Huh-7, 120 h. In kind it is cell-based. The method, then: as §1, §2
In the next experiment the test system is HepG2. The experiment in a line: Cell line sensitivity (proliferation, CellTiter-GloII), HepG2. The class given is cell-based. The following applies: Homo sapiens. The protocol:
as §1, §2

The test system of a further experiment is JHH7. The experiment in a line: Cell line sensitivity (proliferation, CellTiter-GloII), JHH7. In kind it is cell-based. The method, then:
as §1, §2

A further experiment concerns JHH5. As to the kind of experiment: Cell line sensitivity (proliferation, CellTiter-GloII), JHH5. As to conditions: 120 h. The class given is cell-based. The protocol:
as §1, §2

The target in experiment [1] is T1, human GPC3 (Homo sapiens, UniProt P51654).
T1 construct: C-terminal glycophosphatidylinositol anchor (GPI link) (C); expressed in transfected cells; host or cells: 293 cells
T1 sequence (P51654 359-420): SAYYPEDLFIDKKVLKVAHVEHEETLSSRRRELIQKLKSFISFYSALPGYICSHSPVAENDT
The experiment in a line: FACS binding to huGPC truncation constructs on 293 cells. The following applies: huGPC(aa359-420) on 293 cells. From the text: (§3) C-terminal truncation constructs of huGPC(aa359-589) were made to further refine the epitopes for antibodies 4A11 and 15G1. Three different […] truncations were made, comprising amino acids 359 to 420 of human GPC3, amino acids 359 to 470 of human GPC3, and amino acids 359 to 509 of human GPC3. The three C-terminal truncations each comprised an HSV N-terminal signal sequence (SS) and gD sequence (SEQ ID NO: 41) and C-terminal glycophosphatidylinositol anchor (GPI link). The huGPC truncation constructs were expressed on the surface of 293 cells and antibody binding was determined by FACS. An anti-gD was used as a positive control. Vector-transfected 293 cells were used as a negative control.
(A flow cytometer gives signals particle by particle.)

The target of experiment [2] is T2, human GPC3 (Homo sapiens, UniProt P51654).
T2 construct: C-terminal glycophosphatidylinositol anchor (GPI link) (C); expressed in transfected cells; host or cells: 293 cells
T2 sequence (P51654 359-470): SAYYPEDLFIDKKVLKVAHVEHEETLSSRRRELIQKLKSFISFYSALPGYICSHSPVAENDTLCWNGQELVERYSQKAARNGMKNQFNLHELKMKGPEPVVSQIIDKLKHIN
Described as above. As to conditions: huGPC(aa359-470) on 293 cells.
Excerpt: as §3

For experiment [3], the target named is T3, human GPC3 (Homo sapiens, UniProt P51654).
T3 construct: C-terminal glycophosphatidylinositol anchor (GPI link) (C); expressed in transfected cells; host or cells: 293 cells
T3 sequence (P51654 359-509): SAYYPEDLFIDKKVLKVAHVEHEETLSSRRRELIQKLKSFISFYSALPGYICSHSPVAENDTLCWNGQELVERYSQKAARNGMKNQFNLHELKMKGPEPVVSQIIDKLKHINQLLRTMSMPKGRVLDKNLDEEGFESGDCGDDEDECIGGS
The experiment is described as above. The following applies: huGPC(aa359-509) on 293 cells.
Excerpt: as §3

Experiment [4] deals with T4, human GPC3 (Homo sapiens, UniProt P51654).
T4 construct: C-terminal glycophosphatidylinositol anchor (GPI link) (C); expressed in transfected cells; host or cells: 293 cells
T4 sequence (P51654 359-559): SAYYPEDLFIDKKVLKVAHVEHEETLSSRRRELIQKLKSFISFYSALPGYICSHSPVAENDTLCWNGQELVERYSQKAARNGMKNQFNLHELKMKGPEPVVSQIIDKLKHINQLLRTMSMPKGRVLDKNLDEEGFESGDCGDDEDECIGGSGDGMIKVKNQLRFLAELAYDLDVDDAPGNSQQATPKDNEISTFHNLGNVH
The description is as above. As to conditions: huGPC(aa359-559) on 293 cells.
Excerpt: as §3

The test system of experiment [5] is full-length N-terminal gD-tagged cynomolgus monkey GPC3. The experiment in a line: FACS binding to cynomolgus monkey GPC3 on 293 cells. As to conditions: cynomolgus monkey GPC3 expressed on the surface of 293 cells. The method, then:
(§4) Antibodies 15G1 and 4A11 were tested for binding to full-length N-terminal gD-tagged cynomolgus monkey GPC3 and full-length N-terminal gD-tagged rat GPC3 expressed on the surface of 293 cells by FACS. Both antibodies bound to cynomolgus monkey GPC3. 15G1, but not 4A11, also bound to rat GPC3. […] The 7H1 epitope is also highly conserved between human, cynomolgus monkey, rhesus macaque, mouse, and rat GPC3, and as discussed above, antibody 7H1 detects human, cynomolgus monkey, rat, and mouse GPC3 by Western blot.

Experiment [6] has as its target T5, full-length N-terminal gD-tagged rat GPC3 (Rattus norvegicus, UniProt P13265).
T5 construct: full-length N-terminal gD-tagged rat GPC3 expressed on the surface of 293 cells by FACS; gD (N); expressed in transfected cells; host or cells: 293 cells
The experiment in a line: FACS binding to rat GPC3 on 293 cells. The following applies: rat GPC3 expressed on the surface of 293 cells. The method, then:
as §4

Where two headings read alike, the source gives them in different places.

T5 sequence (P13265 with tags, fused parts or gaps limits assumed): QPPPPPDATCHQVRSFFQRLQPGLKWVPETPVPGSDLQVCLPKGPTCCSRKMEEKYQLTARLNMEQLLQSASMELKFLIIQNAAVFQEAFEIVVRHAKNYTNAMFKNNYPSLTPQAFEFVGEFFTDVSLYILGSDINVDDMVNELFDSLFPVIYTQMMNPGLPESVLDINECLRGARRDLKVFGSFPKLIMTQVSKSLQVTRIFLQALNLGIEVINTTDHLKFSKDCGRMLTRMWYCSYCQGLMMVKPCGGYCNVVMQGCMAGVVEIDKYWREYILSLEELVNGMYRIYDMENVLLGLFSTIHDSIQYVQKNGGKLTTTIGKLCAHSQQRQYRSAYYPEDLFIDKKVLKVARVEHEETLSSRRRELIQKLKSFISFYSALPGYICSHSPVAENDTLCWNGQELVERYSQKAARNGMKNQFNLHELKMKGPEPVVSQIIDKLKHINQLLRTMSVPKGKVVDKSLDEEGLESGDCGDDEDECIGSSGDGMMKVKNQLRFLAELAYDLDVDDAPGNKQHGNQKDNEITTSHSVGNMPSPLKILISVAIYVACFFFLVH
Chain of full-length N-terminal gD-tagged cynomolgus monkey GPC3 (as listed by the source): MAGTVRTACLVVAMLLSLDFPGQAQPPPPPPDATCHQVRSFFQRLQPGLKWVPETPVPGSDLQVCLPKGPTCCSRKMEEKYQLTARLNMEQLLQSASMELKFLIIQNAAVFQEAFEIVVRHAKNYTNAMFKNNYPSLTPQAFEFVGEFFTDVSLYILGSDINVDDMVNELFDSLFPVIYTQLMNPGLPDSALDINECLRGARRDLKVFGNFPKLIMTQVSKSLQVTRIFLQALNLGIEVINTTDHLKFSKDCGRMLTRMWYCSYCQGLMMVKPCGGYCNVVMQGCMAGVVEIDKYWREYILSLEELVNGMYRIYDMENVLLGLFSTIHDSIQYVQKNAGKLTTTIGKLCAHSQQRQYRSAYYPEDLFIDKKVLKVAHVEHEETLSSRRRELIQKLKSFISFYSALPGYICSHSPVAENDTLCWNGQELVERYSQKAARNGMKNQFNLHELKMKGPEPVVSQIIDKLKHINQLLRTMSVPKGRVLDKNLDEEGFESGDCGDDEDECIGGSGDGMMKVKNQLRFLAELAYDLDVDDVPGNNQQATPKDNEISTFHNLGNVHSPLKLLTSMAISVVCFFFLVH

Turning to `C=C1C[C@H]2C=Nc3cc(OCCCCCOc4cc5c(cc4OC)C(=O)N4CC(=C)C[C@H]4C=N5)c(OC)cc3C(=O)N2C1` [SG-2057], the EC50 came out at 0.056 nM in the experiment with 293S; 0.034 nM in the experiment with 293_GPC3; 0.122 nM with PC3; 0.474 nM with Hep3B.2.1-7; 0.147 nM in the experiment with Huh7; 0.029 nM with HepG2 (HepG2, 120 h). Besides, the EC50 in the experiment with JHH7 (JHH7, 120 h) was 0.135 nM; in the experiment with JHH5, 0.105 nM.
With `COc1cccc2c1C(=O)c1c(O)c3c(c(O)c1C2=O)C[C@@](O)(C(=O)CO)C[C@@H]3O[C@H]1C[C@H]2[C@H](O[C@@H]3[C@@H](OC)OCCN32)[C@H](C)O1` [PNU-159682], the EC50 was determined as 0.022 nM in the experiment on 293S (293S, free drug, cell numbers three or 5 days after drug addition, read-out: EC50); 0.019 nM in the experiment with 293_GPC3 (293_GPC3, free drug, cell numbers three or 5 days after drug addition, read-out: EC50); 0.051 nM with PC3 (PC3, free drug, cell numbers three or 5 days after drug addition, read-out: EC50); 0.042 nM with Hep3B.2.1-7 (Hep3B.2.1-7, free drug, cell numbers three or 5 days after drug addition, read-out: EC50); 0.029 nM with Huh7 (Huh7, free drug, cell numbers three or 5 days after drug addition, read-out: EC50); 0.029 nM in the experiment with HepG2 (120 h, HepG2, free drug, cell numbers three or 5 days after drug addition, read-out: EC50). In addition, the EC50 in the experiment on JHH7 (120 h, JHH7, free drug, cell numbers three or 5 days after drug addition, read-out: EC50) was found to be 0.038 nM; in the experiment with JHH5 (JHH5, free drug, cell numbers three or 5 days after drug addition, read-out: EC50), 0.031 nM.

B1: 15G1: anti-GPC3 monoclonal antibody; heavy and light chain variable regions SEQ ID NOs: 18 and 19 (antibody, V domains shown)
VH: EVQLLETGGGLVQPGGSRGLSCEGSGFTFSGFWMSWVRQTPGKTLEWIGDINSDGSSINYAPSIKDRFTIFRDNDKSILYLQMTNVRSEDTGTYFCVTTYGDYWGQGTTLTVSS
VL: DIVMTQSQKFMSTSVGDRVSVTCKASQNVGSHVGWYQQKSGQSPKALIYSASNRYIGVPDRFTGSGSGTDFTLTISNVQSEDLAEYFCQQYHIYPYTFGGGTRLEIK
B1: the “Binding by FACS” value in the experiment with human GPC3 [1] was “not”; in the experiment with human GPC3 [2], “bound”; with human GPC3 [3], “bound”; with human GPC3 [4] it was “bound”; in [5], “bound”; in experiment [6], “bound”.

B2: 4A11: anti-GPC3 monoclonal antibody; heavy and light chain variable regions SEQ ID NOs: 10 and 11 (antibody, V domains shown)
VH: EVQLQQSAAELARPGASVRMSCRTSGYTFTTYTIHWMKQRPGQGLEWIGYINPNGGYTEYNQKFRDRTTLTADKSSSTAYMQLSSLTSEDSAVYYCTRNFDYWGQGTTLTVSS
VL: DIVMTQSPSSMYASLGERVTITCKASQDINSYLSWFQQKPGKSPKTLIYRVNRLVDGVPSRFSGSGSGQDYSLTISSLEYEDVGIYYCLQYDEFPLTLGAGTKLELK
As to B2, the “Binding by FACS” value in the experiment with human GPC3 [1] is listed as “not”; in the experiment with human GPC3 [2], “not”; with human GPC3 [3], “bound”; with human GPC3 [4] it was “bound”; in experiment [5] it was “bound”; in experiment [6] it was “not”.
